ChEMBL document CHEMBL5291721, “A preclinical secondary pharmacology resource illuminates target-adverse drug reaction associations of marketed drugs” (Nat Commun, 2023)

What was measured:
Vasopressin V2 receptor = Vasopressin V2 receptor (Homo sapiens, UniProt P30518)
Histamine H1 receptor = Histamine H1 receptor (Homo sapiens, UniProt P35367)
[1] = molecular target: T1, Alpha-1A adrenergic receptor (Homo sapiens, UniProt P35348); format: functional, cell-based
T1 sequence (P35348 whole entry): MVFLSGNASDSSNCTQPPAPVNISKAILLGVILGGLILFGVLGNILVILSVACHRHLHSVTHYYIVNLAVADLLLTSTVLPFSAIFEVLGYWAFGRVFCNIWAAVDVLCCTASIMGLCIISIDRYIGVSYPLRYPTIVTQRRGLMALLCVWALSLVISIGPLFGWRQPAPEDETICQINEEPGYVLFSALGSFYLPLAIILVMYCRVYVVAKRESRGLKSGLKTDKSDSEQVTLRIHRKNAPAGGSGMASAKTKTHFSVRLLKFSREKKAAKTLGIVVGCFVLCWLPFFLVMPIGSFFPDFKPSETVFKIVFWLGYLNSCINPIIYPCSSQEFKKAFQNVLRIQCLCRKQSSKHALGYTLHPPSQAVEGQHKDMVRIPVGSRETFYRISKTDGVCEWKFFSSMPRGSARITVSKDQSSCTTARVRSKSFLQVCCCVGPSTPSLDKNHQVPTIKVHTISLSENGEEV

D(1A) dopamine receptor = D(1A) dopamine receptor (Homo sapiens, UniProt P21728); format: functional, cell-based
[2] = molecular target: T2, Alpha-2A adrenergic receptor (Homo sapiens, UniProt P08913); format: functional, cell-based
T2 sequence (P08913 whole entry): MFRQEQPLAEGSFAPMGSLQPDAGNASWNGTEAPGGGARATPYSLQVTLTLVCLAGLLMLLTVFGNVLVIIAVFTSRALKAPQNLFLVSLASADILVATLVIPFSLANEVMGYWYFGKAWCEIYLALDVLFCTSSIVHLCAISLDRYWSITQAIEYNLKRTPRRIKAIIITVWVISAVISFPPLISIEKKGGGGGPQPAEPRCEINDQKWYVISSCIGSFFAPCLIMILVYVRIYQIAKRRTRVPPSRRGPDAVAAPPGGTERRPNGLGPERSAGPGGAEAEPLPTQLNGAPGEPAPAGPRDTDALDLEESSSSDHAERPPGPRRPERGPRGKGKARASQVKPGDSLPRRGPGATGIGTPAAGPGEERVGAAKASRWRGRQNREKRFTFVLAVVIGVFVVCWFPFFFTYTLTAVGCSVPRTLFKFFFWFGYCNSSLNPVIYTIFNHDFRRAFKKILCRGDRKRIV

[3] = molecular target: 5-hydroxytryptamine receptor 2A (Homo sapiens, UniProt P28223); format: functional, cell-based
[4] = molecular target: Beta-1 adrenergic receptor (Homo sapiens, UniProt P08588); format: functional
Histamine H3 receptor = Histamine H3 receptor (Homo sapiens, UniProt Q9Y5N1)
[5] = molecular target: Neuronal acetylcholine receptor subunit alpha-4 (Homo sapiens, UniProt P43681)
[6] = molecular target: T3, Equilibrative nucleoside transporter 1 (Homo sapiens, UniProt Q99808)
T3 sequence (Q99808 whole entry): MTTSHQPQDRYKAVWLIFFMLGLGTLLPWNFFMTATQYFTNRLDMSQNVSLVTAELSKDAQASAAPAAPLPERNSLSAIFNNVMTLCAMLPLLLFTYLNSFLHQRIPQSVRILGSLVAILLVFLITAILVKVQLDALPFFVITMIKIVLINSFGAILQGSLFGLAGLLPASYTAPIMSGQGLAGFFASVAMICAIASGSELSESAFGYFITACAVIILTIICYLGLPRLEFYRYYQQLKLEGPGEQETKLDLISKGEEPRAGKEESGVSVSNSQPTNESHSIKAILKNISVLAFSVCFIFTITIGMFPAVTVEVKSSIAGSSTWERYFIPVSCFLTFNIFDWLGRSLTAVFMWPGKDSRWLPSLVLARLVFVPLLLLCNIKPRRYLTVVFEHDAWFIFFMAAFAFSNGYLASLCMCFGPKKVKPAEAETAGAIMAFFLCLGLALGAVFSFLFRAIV

[7] = molecular target: T4, Alpha-2B adrenergic receptor (Homo sapiens, UniProt P18089)
T4 sequence (P18089 whole entry): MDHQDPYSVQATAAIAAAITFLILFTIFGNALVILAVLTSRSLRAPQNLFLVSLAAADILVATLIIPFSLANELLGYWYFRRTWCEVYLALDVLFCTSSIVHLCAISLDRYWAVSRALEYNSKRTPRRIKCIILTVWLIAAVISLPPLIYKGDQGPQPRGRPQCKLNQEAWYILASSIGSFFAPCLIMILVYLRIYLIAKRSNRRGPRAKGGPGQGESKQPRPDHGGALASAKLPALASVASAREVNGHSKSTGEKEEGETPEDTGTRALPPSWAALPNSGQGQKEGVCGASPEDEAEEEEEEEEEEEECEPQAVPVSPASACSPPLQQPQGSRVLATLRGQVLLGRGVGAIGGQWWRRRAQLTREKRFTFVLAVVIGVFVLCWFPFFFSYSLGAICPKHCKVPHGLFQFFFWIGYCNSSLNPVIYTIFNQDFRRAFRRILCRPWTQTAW

[8] = molecular target: T5, 5-hydroxytryptamine receptor 1A (Homo sapiens, UniProt P08908); format: functional, cell-based
T5 sequence (P08908 whole entry): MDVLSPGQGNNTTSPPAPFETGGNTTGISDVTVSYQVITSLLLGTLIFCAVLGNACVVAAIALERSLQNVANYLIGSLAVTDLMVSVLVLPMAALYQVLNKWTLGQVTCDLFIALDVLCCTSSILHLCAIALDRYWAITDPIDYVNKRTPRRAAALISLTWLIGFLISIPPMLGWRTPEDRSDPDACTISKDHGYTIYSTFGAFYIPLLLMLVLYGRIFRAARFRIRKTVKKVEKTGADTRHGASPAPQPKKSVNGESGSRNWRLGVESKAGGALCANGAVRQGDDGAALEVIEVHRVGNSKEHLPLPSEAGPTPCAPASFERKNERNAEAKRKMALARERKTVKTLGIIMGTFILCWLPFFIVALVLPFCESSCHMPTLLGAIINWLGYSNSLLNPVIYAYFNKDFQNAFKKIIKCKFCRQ

[9] = molecular target: 5-hydroxytryptamine receptor 2B (Homo sapiens, UniProt P41595); format: functional, cell-based
Note: assay procedure not described here.

Chain of Neuronal acetylcholine receptor subunit alpha-4 (P43681 whole entry): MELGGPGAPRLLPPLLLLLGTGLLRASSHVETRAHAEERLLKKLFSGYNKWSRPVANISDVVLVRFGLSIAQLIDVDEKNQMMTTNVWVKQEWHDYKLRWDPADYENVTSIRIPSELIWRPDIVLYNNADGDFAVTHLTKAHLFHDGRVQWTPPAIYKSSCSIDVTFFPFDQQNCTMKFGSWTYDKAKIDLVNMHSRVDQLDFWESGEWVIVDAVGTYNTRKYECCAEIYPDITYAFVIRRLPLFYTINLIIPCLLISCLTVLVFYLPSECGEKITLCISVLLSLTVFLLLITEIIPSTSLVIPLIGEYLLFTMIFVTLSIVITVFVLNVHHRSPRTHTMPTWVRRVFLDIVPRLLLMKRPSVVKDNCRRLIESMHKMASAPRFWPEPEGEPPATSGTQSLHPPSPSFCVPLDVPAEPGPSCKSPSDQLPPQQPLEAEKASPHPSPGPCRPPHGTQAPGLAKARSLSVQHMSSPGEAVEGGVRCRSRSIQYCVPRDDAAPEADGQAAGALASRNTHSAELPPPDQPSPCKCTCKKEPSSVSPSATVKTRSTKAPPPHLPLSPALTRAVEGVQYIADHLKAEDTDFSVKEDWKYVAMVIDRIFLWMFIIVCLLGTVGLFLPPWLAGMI
Chain of D(1A) dopamine receptor (P21728 whole entry): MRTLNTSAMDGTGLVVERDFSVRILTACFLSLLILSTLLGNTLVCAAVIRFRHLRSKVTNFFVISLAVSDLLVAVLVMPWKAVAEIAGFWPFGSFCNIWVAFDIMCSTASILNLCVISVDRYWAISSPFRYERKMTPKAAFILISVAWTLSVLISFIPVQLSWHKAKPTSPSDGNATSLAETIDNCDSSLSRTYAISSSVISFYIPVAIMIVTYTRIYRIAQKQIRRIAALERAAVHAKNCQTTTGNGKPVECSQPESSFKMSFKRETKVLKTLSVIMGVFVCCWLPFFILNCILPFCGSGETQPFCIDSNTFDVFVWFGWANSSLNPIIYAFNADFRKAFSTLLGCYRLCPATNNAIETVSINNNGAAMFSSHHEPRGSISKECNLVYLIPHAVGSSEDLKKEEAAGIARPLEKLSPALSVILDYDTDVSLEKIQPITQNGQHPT
Chain of Histamine H3 receptor (Q9Y5N1 whole entry): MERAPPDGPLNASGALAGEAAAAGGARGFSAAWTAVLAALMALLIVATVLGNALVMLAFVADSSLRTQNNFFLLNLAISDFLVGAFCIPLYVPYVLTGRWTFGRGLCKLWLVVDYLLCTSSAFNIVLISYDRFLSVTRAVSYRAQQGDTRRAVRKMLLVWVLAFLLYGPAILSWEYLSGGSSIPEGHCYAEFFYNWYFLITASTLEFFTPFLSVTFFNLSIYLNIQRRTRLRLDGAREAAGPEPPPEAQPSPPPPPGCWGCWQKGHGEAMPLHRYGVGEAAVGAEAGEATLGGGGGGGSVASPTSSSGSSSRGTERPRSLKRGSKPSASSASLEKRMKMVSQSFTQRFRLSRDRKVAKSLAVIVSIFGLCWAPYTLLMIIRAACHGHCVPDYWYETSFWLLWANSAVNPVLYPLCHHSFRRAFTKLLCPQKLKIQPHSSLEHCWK
Chain of 5-hydroxytryptamine receptor 2A (P28223 whole entry): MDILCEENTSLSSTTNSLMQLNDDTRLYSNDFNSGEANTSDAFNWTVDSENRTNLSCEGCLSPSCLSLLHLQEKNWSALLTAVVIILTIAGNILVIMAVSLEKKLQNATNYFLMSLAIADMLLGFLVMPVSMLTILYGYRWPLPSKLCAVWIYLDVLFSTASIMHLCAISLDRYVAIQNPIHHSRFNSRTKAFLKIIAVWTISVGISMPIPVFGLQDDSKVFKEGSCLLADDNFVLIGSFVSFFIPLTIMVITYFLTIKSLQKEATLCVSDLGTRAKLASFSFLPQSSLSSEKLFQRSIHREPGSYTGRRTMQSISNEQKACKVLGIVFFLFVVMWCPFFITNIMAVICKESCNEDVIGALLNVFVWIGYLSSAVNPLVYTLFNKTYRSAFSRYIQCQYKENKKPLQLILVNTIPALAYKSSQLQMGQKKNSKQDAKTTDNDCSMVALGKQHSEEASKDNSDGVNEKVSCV
Chain of 5-hydroxytryptamine receptor 2B (P41595 whole entry): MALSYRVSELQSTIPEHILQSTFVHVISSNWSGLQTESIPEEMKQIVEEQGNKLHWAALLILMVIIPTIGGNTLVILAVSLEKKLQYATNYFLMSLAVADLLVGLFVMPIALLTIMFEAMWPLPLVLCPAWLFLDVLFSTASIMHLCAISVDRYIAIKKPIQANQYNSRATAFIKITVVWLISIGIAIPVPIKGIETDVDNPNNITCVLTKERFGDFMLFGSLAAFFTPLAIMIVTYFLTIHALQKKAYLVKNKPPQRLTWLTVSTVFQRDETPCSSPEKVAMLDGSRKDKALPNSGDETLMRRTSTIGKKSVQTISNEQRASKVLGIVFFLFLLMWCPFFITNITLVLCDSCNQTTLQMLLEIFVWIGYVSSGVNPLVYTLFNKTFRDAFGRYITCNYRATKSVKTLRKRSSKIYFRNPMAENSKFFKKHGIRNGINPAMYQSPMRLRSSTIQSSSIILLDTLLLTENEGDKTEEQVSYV
Chain of Beta-1 adrenergic receptor (P08588 whole entry): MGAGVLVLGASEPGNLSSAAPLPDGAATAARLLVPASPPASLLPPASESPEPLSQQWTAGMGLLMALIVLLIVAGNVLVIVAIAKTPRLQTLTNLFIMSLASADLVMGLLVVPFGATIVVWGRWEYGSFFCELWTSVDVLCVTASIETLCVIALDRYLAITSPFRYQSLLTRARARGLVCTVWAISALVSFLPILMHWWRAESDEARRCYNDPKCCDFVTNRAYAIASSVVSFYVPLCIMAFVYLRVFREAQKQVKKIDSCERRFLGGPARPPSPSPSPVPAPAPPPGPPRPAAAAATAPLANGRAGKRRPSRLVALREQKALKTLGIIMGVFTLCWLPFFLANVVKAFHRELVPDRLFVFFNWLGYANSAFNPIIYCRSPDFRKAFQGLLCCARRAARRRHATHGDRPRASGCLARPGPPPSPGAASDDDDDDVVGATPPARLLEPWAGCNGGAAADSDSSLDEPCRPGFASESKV
Chain of Histamine H1 receptor (P35367 whole entry): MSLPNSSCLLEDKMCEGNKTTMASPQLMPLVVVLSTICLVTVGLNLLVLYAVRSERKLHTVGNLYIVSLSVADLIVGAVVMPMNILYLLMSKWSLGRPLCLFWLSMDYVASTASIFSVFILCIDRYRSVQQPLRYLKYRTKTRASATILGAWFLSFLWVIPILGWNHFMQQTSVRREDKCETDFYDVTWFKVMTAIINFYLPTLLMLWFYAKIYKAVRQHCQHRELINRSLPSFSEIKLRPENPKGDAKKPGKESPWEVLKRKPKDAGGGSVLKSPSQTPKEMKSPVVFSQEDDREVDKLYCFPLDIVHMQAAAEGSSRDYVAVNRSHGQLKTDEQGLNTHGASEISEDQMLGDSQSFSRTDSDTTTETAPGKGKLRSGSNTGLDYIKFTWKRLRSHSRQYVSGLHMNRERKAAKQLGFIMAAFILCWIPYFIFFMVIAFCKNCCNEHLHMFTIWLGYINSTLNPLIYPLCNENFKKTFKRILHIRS

Row | Compound | AC50 (Vasopressin V2 receptor) | AC50 (Histamine H1 receptor) | AC50 [1] | AC50 (D(1A) dopamine receptor) | AC50 [2] | AC50 [3] | AC50 [4] | AC50 (Histamine H3 receptor) | AC50 [5] | AC50 [6] | AC50 [7] | AC50 [8] | AC50 [9]
1 | C1=Cc2cccc(OCC3CNCCO3)c2C1 (stereo unspecified) [INDELOXAZINE] | > 30 µM | 17 µM | > 30 µM | > 30 µM | > 30 µM | 17 µM | > 30 µM | > 30 µM | > 30 µM | > 30 µM | > 30 µM | > 30 µM | 5.3 µM
2 | COc1ccc(C(=O)NCc2ccc(OCCN(C)C)cc2)cc1OC [ITOPRIDE] | > 30 µM | > 30 µM | > 30 µM | > 30 µM | > 30 µM | > 30 µM | > 30 µM | 19 µM | > 30 µM | > 30 µM | > 30 µM | > 30 µM | > 30 µM
3 | O=C(O)Cc1cn(-c2ccccc2)nc1-c1ccc(Cl)cc1 [LONAZOLAC] | > 30 µM | > 30 µM | > 30 µM | > 30 µM | > 30 µM | > 30 µM | > 30 µM | > 30 µM | > 30 µM | > 30 µM | > 30 µM | > 30 µM | > 30 µM
4 | C#C[C@]1(O)CC[C@H]2[C@@H]3CCC4=CCCC[C@@H]4[C@H]3CC[C@@]21C [LYNESTRENOL] | > 30 µM | > 30 µM | > 30 µM | > 30 µM | > 30 µM | > 30 µM | > 30 µM | > 30 µM | > 30 µM | > 30 µM | > 30 µM | > 30 µM | > 30 µM
5 | Cc1cc(-c2ccccc2)nnc1NCCN1CCOCC1 [MINAPRINE] | > 30 µM | > 10 µM | > 30 µM | > 10 µM | > 10 µM | > 30 µM | > 10 µM | > 10 µM | > 10 µM | > 30 µM | > 10 µM | > 10 µM | 5.4 µM
6 | O=C(OCCN1CCOCC1)c1cccnc1Nc1cccc(C(F)(F)F)c1 [MORNIFLUMATE] | > 30 µM | > 30 µM | > 30 µM | > 30 µM | > 30 µM | 2.9 µM | > 30 µM | > 30 µM | > 30 µM | > 30 µM | > 30 µM | > 30 µM | 10 µM
7 | CCCCCCC(C)(C)c1cc(O)c2c(c1)OC(C)(C)C1CCC(=O)CC21 (stereo unspecified) [NABILONE] | > 30 µM | > 30 µM | > 30 µM | > 30 µM | > 30 µM | > 30 µM | > 30 µM | > 30 µM | > 30 µM | > 30 µM | > 30 µM | > 30 µM | > 30 µM
8 | CC(Cc1ccccc1)NCCC(c1ccccc1)c1ccccc1 (stereo unspecified) [PRENYLAMINE] | > 30 µM | 7.9 µM | > 30 µM | > 30 µM | > 10 µM | > 30 µM | 6.8 µM | > 10 µM | > 10 µM | > 30 µM | 1.7 µM | > 30 µM | > 10 µM
9 | Cc1nc2ccc(CN(C)c3ccc(C(=O)N[C@@H](CCC(=O)O)C(=O)O)s3)cc2c(=O)[nH]1 [RALTITREXED] | > 30 µM | > 30 µM | > 30 µM | > 30 µM | > 30 µM | > 30 µM | > 30 µM | > 30 µM | > 30 µM | > 30 µM | > 30 µM | > 30 µM | > 30 µM
10 | Cc1ccc(-c2nc3ccc(C)cn3c2CC(=O)N(C)C)cc1 [ZOLPIDEM] | > 30 µM | > 30 µM | > 30 µM | > 30 µM | > 30 µM | > 30 µM | > 30 µM | > 30 µM | > 30 µM | > 30 µM | > 30 µM | > 30 µM | 29 µM
11 | CN1CCN(C(=O)OC2c3nccnc3C(=O)N2c2ccc(Cl)cn2)CC1 (stereo unspecified) [ZOPICLONE] | > 30 µM | > 30 µM | > 30 µM | > 10 µM | > 10 µM | > 30 µM | > 30 µM | > 30 µM | > 30 µM | > 30 µM | > 30 µM | > 10 µM | > 10 µM
12 | TOCOFERSOLAN | > 30 µM | > 30 µM | > 30 µM | > 30 µM | > 30 µM | > 30 µM | > 30 µM | > 30 µM | > 30 µM | > 30 µM | > 30 µM | > 30 µM | > 30 µM
